In patent publication US7041677B2, “Use of monochloroflosequinan in the treatment of sexual dysfunction” (R.T. Alamo Ventures I, LLC, priority 2002, dated 2006):

Biological target: T1, PDE6 (Bos taurus, UniProt P11541+P23439)
T1 construct: from tissue; host or cells: bovine retinal rod outer segments
T1 sequence (P11541 2-856 limits assumed): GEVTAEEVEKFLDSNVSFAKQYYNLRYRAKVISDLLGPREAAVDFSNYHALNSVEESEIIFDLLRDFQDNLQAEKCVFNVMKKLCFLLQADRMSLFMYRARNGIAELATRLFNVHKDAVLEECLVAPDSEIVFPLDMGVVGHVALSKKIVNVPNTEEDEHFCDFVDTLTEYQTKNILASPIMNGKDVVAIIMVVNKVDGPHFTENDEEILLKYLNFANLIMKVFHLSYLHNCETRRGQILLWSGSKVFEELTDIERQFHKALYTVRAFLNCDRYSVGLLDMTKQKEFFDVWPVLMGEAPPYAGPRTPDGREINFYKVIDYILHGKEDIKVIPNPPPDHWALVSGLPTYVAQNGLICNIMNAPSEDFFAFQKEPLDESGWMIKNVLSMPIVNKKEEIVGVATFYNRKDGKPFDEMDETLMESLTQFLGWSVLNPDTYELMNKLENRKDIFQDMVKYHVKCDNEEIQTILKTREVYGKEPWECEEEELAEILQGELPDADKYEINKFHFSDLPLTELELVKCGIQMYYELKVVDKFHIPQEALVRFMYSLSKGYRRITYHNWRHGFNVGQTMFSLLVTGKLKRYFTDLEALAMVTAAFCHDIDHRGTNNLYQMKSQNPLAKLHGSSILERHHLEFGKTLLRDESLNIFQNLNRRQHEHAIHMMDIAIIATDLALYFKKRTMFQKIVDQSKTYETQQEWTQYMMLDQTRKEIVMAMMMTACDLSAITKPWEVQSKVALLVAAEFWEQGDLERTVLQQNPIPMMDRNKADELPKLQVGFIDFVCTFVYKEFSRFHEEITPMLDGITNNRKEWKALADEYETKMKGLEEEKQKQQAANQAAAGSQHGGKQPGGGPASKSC
T1 sequence (P23439 2-850 limits assumed): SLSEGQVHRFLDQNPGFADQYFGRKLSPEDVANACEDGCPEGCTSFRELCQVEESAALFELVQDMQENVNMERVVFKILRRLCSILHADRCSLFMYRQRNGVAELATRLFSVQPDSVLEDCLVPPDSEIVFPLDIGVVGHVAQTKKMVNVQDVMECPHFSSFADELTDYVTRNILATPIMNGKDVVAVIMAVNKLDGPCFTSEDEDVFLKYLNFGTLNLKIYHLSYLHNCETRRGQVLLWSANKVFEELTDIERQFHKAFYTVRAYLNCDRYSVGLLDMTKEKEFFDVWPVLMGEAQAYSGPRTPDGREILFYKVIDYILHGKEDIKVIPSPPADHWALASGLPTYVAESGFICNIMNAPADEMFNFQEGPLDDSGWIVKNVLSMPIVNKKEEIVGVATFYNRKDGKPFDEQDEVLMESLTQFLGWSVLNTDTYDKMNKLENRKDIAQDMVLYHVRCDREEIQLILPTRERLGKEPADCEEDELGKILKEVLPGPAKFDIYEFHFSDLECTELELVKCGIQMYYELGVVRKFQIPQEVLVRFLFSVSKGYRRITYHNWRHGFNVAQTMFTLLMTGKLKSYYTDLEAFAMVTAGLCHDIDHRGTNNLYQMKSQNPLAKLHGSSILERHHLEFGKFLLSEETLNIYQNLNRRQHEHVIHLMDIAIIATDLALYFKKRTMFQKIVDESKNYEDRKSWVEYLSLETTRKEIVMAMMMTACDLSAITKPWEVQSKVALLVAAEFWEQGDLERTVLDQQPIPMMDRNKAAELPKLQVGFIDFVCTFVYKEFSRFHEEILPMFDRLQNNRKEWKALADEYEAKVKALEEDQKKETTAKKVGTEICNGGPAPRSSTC
Experiment: PDE6 enzyme inhibition assay
Assay type: biochemical, bovine
Settings: 200 μM, 25° C., 1% DMSO vehicle

| inhibition of PDE6 | SMILES |
| --- | --- |
| greater than 50% | Cn1cc([S@@+]([O-])CCl)c(=O)c2ccc(F)cc21 (single isomer, unassigned) [(−)-enantiomer of monochloroflosequinan] |
| greater than 50% | Cn1cc([S@+]([O-])CCl)c(=O)c2ccc(F)cc21 (single isomer, unassigned) [(+)-enantiomer of monochloroflosequinan] |
